Assay results from US20040103453A1, “Lipoxygenase genes, promoters, transit peptides and proteins thereof” (priority 2000, published 2004).
“Also recorded” adds a separate entry of the source.

Columns and labels:
RCI-1 transcripts = assay: RNA gel blot (Northern) analysis of RCI-1 transcripts in treated rice leaves; type: in vivo, Oryza sativa cv. Kusabue; conditions: for RCI-1 transcript (mRNA) accumulation: RNA from chemically treated rice leaves, INA and BTH sprayed onto leaves, probenazole by soil drench
[1] = system: lipoxygenase (LOX) enzyme activity in rice leaves; assay: LOX enzyme activity in BTH-treated rice leaves; type: in vivo, Oryza sativa cv. Kusabue; conditions: between 24 and 48 h after BTH treatment
RLL2 transcripts = assay: RNA gel blot probed with rice LOX cDNA RLL2; type: in vivo; conditions: RNA from treated rice plants
L-2 transcripts = assay: RNA gel blot probed with rice LOX cDNA L-2; type: in vivo; conditions: RNA from treated rice plants
rice blast disease = conditions: treatment of rice; cited from earlier work
[2] = system: lipoxygenase (LOX, linoleate:oxygen oxidoreductase, EC 1.13.11.12); conditions: treatment of rice; cited from earlier work
[3] = HPLC analysis of reaction products of recombinant RCI-1; conditions: linoleic acid or linolenic acid as substrate, 0.1 M Tris-HCl pH 8.8, 20 min, 30° C.
Experimental: Lipoxygenase activity is measured at 30° C. photospectrometrically at 234 nm using linoleic acid as a substrate and 5-20 μl from the recombinant RCI-1 enzyme extract (Bohland et al. (1997) Plant Physiol. 114, 679-685). For determination of the pH optimum, different buffers with overlapping pH ranges (pH 4-6: 0.1 M Na-acetate; pH 6-8: 0.1 M Na-phosphate; pH 8-10: 0.1 M Tris-HCl) are used. The molar extinction coefficient of the reaction product, 2.5×10^7 cm^−1 mol^−1, is used for the calculation of the enzyme activity. […] The products of the enzymatic activity of the RCI-1 protein are analyzed by HPLC (Bohland et al. (1997) Plant Physiol. 114, 679-685). Approximately 0.2 nkat enzyme activity obtained from recombinant RCI-1 protein is incubated with 50 μl substrate solution (10 μl of linoleic or α-linolenic acid, respectively; 20 μl ethanol, 20 μl H2O) in 2 ml 0.1 M Tris-HCl pH 8.8 for 20 min. at 30° C. The reaction is stopped by lowering the pH to 3.0 with diluted HCl, and the hydroperoxides are extracted with 1 ml of CHCl3 followed by two washes with water. […] Products are detected at 234 nm and standards are obtained from Biomol (Hamburg, Germany) or prepared from linoleic or α-linolenic acid by incubation with soybean lipoxygenase, respectively, as described (Bohland et al. (1997) Plant Physiol. 114, 679-685).

[4] = Photospectrometric lipoxygenase activity of recombinant RCI-1 enzyme extract; conditions: linoleic acid as substrate
Experimental: Production of recombinant RCI-1 protein is induced by addition of 1 mM IPTG (final concentration) to a 250 ml E. coli M15 culture grown to an OD600 of 1 and further incubation on a shaker overnight at 19° C. The cells are harvested by centrifugation (5000 g, 10 minutes) and resuspended in 5 ml lysis buffer (50 mM Na-phosphate buffer pH 7.5 containing 1 mg l-1 lysozyme). After a 30 minute incubation on ice, the lysate is centrifuged (12000 g, 15 minutes) and the pellet is transferred into a mortar and ground in extraction buffer (0.1 M K-phosphate buffer pH 7, 30 mg polyvinyl-poly-pyrrolidone, 1 mM EDTA). After centrifugation, the clear supernatant is used as an enzyme preparation for further biochemical analysis.
Lipoxygenase activity is measured at 30° C. photospectrometrically at 234 nm using linoleic acid as a substrate and 5-20 μl from the recombinant RCI-1 enzyme extract (Bohland et al. (1997) Plant Physiol. 114, 679-685). For determination of the pH optimum, different buffers with overlapping pH ranges (pH 4-6: 0.1 M Na-acetate; pH 6-8: 0.1 M Na-phosphate; pH 8-10: 0.1 M Tris-HCl) are used. The molar extinction coefficient of the reaction product, 2.5×10^7 cm^−1 mol^−1, is used for the calculation of the enzyme activity.

[5] = rice leaves treated with INA, time course, RNA gel blot

## CSC(=O)c1cccc2nnsc12 [BTH, benzo(1,2,3)thiadiazole-7-carbothioic acid S-methyl ester]
RCI-1 transcripts
  RCI-1 transcript (mRNA) accumulation: induces RCI1 transcript accumulation; also recorded: strong hybridization signal
[1]
  LOX enzymatic activity in rice leaves: significant increase
RLL2 transcripts
  RLL2 transcript accumulation: do not accumulate
L-2 transcripts
  L-2 transcript accumulation: do not accumulate

## CC/C=C\C[C@H]1C(=O)CC[C@@H]1CC(=O)O [jasmonic acid]
RCI-1 transcripts; 7 to 12 h after spraying of a 1 mM solution onto rice leaves
  RCI-1 transcript levels: strongly increase
RCI-1 transcripts
  RCI-1 transcript (mRNA) accumulation: strong hybridization signal

## C=CCOC1=NS(=O)(=O)c2ccccc21 [probenazole]
RCI-1 transcripts
  RCI-1 transcript (mRNA) accumulation: induces RCI1 transcript accumulation; also recorded: strong hybridization signal
RCI-1 transcripts; probenazole soil drench, compared with INA and BTH spraying
  time course of RCI-1 mRNA accumulation: delayed time course
RLL2 transcripts
  RLL2 transcript accumulation: do not accumulate
L-2 transcripts
  L-2 transcript accumulation: do not accumulate

## O=C(O)c1cc(Cl)nc(Cl)c1 [INA, 2,6-dichloroisonicotinic acid]
RCI-1 transcripts
  RCI-1 transcript (mRNA) accumulation: strong hybridization signal
RCI-1 transcripts; [5]
  time after treatment at which RCI-1 transcripts reach maximal levels: 24 to 48 h
  time after treatment at which RCI-1 transcripts start to accumulate: 8 h
RLL2 transcripts
  RLL2 transcript accumulation: do not accumulate
L-2 transcripts
  L-2 transcript accumulation: do not accumulate

## N#CCNC(=O)c1ccnc(Cl)c1 [N-cyanomethyl-2-chloroisonicotinamid]
Rice blast disease
  resistance inducing activity against rice blast disease: good resistance inducing activity
[2]
  induction of the enzyme lipoxygenase: induced the enzyme lipoxygenase

B1: RCI-1: rice lipoxygenase protein of 922 amino acids (SEQ ID NO:7) encoded by RCI-1 cDNA, expressed recombinantly in E. coli (protein, listed as Oryza sativa)
chain: MLTATQTLAPAVLSRSHGAPSSFSSQPRRTAAAASRVSCTRVGALSEVVNGELVVGDQEQTTDDLLTRHKNVVADYTLSATVTVSLKQDDSTPQKVADMVNRDWLFLDFFSSHIEGMHTEPQLARYSHMDGKGSFIYEASFSIPSSLDAVGAVQVVNRYSSEVYISDIDVHLCGGRHQWTDITFHCNSWIDYNPNDQRFFFPLKSYLPSQTPRGVKNLRKEELRAIRGDGRGERKEWERIYDYDVYNDLGDPDNDPATRRPVLGGRGRPYPRRCRTGRRRCRTDPSSESPPAKDGAGIYVPRDEAFTERKAGAFATKKALSALSAFTTAQRVSGDRRRGFPSLAAIDALYEDGYKNRPSSSQQEADNLEGYFREVLQKQVKLLLKGEKEEFKEELRKVFKFQTPEIHDKDKLAWFRDEEFARQTLAGMNPLSIQLVRDTDFPIFSKLDEETYGPGDSLITKELIEEQINGVMTAEEAVEKKKLFMLDYHDVLLPFVHAVRELDDTTLYASRTLFFLTEDGTLRPIAIELTRPKSPNTPQWRQVFTPGSSVAASWLWQLAKTHVLAHDTGYHQLVSHWLRTHCCVEPYVIAANRRLSQMHPIYRLLHPHFRFTMEINAQARGMLINANGIIESAFAPGKLCMELSSAVYDKFWRFDMEALPADLIRRGMAIECEDGKLELTIEDYPYANDGLLIWDSIKEWVSDYVNHYYQLASDIHMDKELQGWWNEVRTKGHPDKEEGWPELNCHGSLVEVLTTIIWVASGHHAAVNFGQYPYAGYFPNRPTIARRNMPTEGQACSHDGMQPTFVEDPVRVLLDTFPSQYQTTLVLPVLNLLSSHSPGEEYMGTHAESAWMADREVRAAFGRFNERMMSIAEMIDCRNKDPERKNRQGPGVVPYVLLKPSYGDPKDMTSVMEMGIPNSISI
[3]
  reaction product (9S)-hydroperoxy-(10E,12Z,15Z) octadecatrienoic acid (9-HPOD): only detected in minor amounts
  reaction product (13S)-hydroperoxy-(9Z,11E,15Z)-octadecatrienoic acid (13-HPOD): predominant product
[4]; 30° C., 234 nm, control extracts no detectable LOX activity
  LOX activity of crude E. coli extract: increased LOX activity
[4]; buffers pH 4-10
  pH of maximal LOX activity: 8 to 9 pH
